Like-named read-outs stand apart in the source and are kept apart here.
How the values were obtained:
MLLT3 = MLLT3 (Homo sapiens, UniProt P42568); test: HTRF IC50 determination assay, MLLT3 / H3K9cro peptide displacement
MLLT1 [1] = target: T1, MLLT1 (Homo sapiens, UniProt Q03111); details: read-out: MLLT1 assay IC50; HTRF, 6His tagged MLLT1, biotinylated H3K9cro peptide; compound 20 μM to 20 nM, 11 data points in duplicate
MLLT1 [2] = target: T1, MLLT1; test: biochemical; details: MLLT1 assay IC50 (nM), HTRF, 6His tagged MLLT1, biotinylated H3K9cro peptide; compound 20 μM to 20 nM, 11 data points in duplicate
[3] = read-out: MLLT3 assay IC50, 6His tagged MLLT3, biotinylated H3K9cro peptide, compound 20 μM to 20 nM, 11 data points in duplicate
[4] = MLLT3 assay IC50 (nM), 6His tagged MLLT3, biotinylated H3K9cro peptide, compound 20 μM to 20 nM, 11 data points in duplicate

Sequence of MLLT3 (P42568 whole entry): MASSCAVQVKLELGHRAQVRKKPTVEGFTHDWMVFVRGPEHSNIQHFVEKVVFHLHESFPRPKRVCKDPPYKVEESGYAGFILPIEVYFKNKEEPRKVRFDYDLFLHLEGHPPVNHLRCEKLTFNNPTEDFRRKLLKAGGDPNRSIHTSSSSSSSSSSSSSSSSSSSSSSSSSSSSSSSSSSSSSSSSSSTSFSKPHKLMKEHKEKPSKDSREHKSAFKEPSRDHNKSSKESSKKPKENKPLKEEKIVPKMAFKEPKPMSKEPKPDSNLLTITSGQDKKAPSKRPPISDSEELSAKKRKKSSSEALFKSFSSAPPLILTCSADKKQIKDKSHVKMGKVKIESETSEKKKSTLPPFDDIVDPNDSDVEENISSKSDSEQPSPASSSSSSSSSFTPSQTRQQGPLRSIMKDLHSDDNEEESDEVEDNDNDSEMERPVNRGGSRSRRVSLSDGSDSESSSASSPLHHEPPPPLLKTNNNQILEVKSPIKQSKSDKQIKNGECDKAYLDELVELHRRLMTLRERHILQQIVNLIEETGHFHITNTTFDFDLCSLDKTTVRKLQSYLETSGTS
T1 sequence (Q03111 whole entry): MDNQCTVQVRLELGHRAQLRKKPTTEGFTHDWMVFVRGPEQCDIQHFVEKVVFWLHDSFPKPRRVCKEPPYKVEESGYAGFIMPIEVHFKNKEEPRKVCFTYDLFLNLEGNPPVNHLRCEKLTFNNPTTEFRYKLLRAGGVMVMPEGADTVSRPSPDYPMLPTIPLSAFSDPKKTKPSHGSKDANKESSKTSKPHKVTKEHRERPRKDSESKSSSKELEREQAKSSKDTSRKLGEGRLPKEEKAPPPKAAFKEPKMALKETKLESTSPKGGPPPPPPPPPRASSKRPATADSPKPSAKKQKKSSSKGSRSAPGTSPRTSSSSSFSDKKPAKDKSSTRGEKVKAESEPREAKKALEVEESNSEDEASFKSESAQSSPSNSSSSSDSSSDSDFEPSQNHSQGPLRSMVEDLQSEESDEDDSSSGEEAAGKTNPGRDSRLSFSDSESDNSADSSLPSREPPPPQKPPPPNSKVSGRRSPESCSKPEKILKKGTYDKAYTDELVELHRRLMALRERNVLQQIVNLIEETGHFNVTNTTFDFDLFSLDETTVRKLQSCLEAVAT

| SMILES | IC50 (MLLT3; [3]) | IC50 (MLLT1 [1]) | IC50 (MLLT3; [4]) | IC50 (MLLT1 [2]) |
| --- | --- | --- | --- | --- |
| CO[C@H]1C[C@H](c2cn3cc(NC(=O)c4ccc5c(cnn5C)c4)ncc3n2)N(C)C1 (stereo in doubt) [Example 85, N-{2-[(rel-2R,4S)-4-methoxy-1-methylpyrrolidin-2-yl]imidazo[1,2-a]pyrazin-6-yl}-1-methylindazole-5-carboxamide] | 150 to 1500 nM | 0.15 to 1.5 µM |  |  |
| CO[C@@H]1C[C@@H](c2cn3cc(NC(=O)c4ccc5c(cnn5C)c4)ncc3n2)N(C)C1 (stereo in doubt) [Example 104, N-{2-[(rel-2S,4R)-4-methoxy-1-methylpyrrolidin-2-yl]imidazo[1,2-a]pyrazin-6-yl}-1-methylindazole-5-carboxamide] | 1500 to 20000 nM | 0.15 to 1.5 µM |  |  |
| C[C@@H]1C[C@H](c2cn3cc(NC(=O)c4ccc5c(cnn5C)c4)ncc3n2)N(C)C1 (relative stereo) [Example 90, N-(2-((2R, rel-4R)-1,4-dimethylpyrrolidin-2-yl)imidazo[1,2-a]pyrazin-6-yl)-1-methyl-1H-indazole-5-carboxamide] | 150 to 1500 nM | < 0.15 µM |  |  |
| CO[C@H]1C[C@@H](c2cn3cc(NC(=O)c4ccc5c(cnn5C)c4)ncc3n2)N(C)C1 (stereo in doubt) [Example 86, N-{2-[(rel-2S,4S)-4-methoxy-1-methylpyrrolidin-2-yl]imidazo[1,2-a]pyrazin-6-yl}-1-methylindazole-5-carboxamide] | 1500 to 20000 nM | 0.15 to 1.5 µM |  |  |
| CN1CCCC1c1cn2cc(NC(=O)c3ccc4c(cnn4C)c3Cl)ccc2n1 (racemic) [Example 52, rac-4-chloro-1-methyl-N-[2-(1-methylpyrrolidin-2-yl)imidazo[1,2-a]pyridin-6-yl]-1H-indazole-5-carboxamide] |  |  | > 20000 nM | 1500 to 20000 nM |
| COCCc1nn(C)c2ccc(C(=O)Nc3ccc4nc(C5CCCN5C)cn4c3)cc12 (racemic) [Example 49, rac-3-(2-methoxyethyl)-1-methyl-N-[2-(1-methylpyrrolidin-2-yl)imidazo[1,2-a]pyridin-6-yl]-1 H-indazole-5-carboxamide] |  |  | 150 to 1500 nM | 150 to 1500 nM |
| Cc1nc2ccc(C(=O)Nc3ccc4nc(C5CCCN5C)cn4c3)cc2nc1C (racemic) [Example 11, rac-2,3-dimethyl-N-[2-(1-methylpyrrolidin-2-yl)imidazo[1,2-a]pyridin-6-yl]quinoxaline-6-carboxamide] |  |  | 150 to 1500 nM | 150 to 1500 nM |
| CN1CCCC1c1cn2cc(NC(=O)c3ccc(-c4ncccn4)cc3F)ccc2n1 (single isomer, unassigned) [Example 20] |  |  | 1500 to 20000 nM | 1500 to 20000 nM |
| CN1CCCC1c1cn2cc(NC(=O)c3cn4ccncc4n3)ccc2n1 (racemic) [Example 34, rac-N-[2-(1-methylpyrrolidin-2-yl)imidazo[1,2-a]pyridin-6-yl]imidazo[1,2-a]pyrazine-2-carboxamide] |  |  | 1500 to 20000 nM | 1500 to 20000 nM |
| CN1CCCC1c1cn2cc(NC(=O)c3ccc(-c4ncon4)cc3)ccc2n1 (racemic) [Example 51, rac-N-[2-(1-methylpyrrolidin-2-yl)imidazo[1,2-a]pyridin-6-yl]-4-(1,2,4-oxadiazol-3-yl)benzamide] |  |  | 1500 to 20000 nM | 150 to 1500 nM |
| Cc1nn(C)c2cc(C(=O)Nc3ccc4nc(C5CCCN5C)cn4c3)c(F)cc12 (racemic) [Example 30, rac-5-fluoro-1,3-dimethyl-N-[2-(1-methylpyrrolidin-2-yl)imidazo[1,2-a]pyridin-6-yllindazole-6-carboxamide] |  |  | 150 to 1500 nM | 150 to 1500 nM |
| Cc1nn(C)c2ncc(C(=O)Nc3ccc4nc(C5CCCN5C)cn4c3)c(Cl)c12 (racemic) [Example 15, rac-4-chloro-1,3-dimethyl-N-[2-(1-methylpyrrolidin-2-yl)imidazo[1,2-a]pyridin-6-yl]-1H-pyrazolo[3,4-b]pyridine-5-carboxamide] |  |  | 1500 to 20000 nM | 1500 to 20000 nM |
| CN1CCCC1c1cn2cc(NC(=O)c3ccn4ccnc4c3)ccc2n1 (racemic) [Example 32, rac-N-[2-(1-methylpyrrolidin-2-yl)imidazo[1,2-a]pyridin-6-yl]imidazo[1,2-a]pyridine-7-carboxamide] |  |  | 1500 to 20000 nM | 150 to 1500 nM |
| CN1CCCC1c1cn2cc(NC(=O)c3ccc4c(cnn4C)c3)ncc2n1 (racemic) [Example 68, rac-1-methyl-N-[2-(1-methylpyrrolidin-2-yl)imidazo[1,2-a]pyrazin-6-yl]-1H-indazole-5-carboxamide] |  |  | 150 to 1500 nM | 150 to 1500 nM |
| Cc1noc2cc(C(=O)Nc3ccc4nc(C5CCCN5C)cn4c3)ccc12 (racemic) [Example 29, rac-3-methyl-N-[2-(1-methylpyrrolidin-2-yl)imidazo[1,2-a]pyridin-6-yl]-1,2-benzoxazole-6-carboxamide] |  |  | 1500 to 20000 nM | 1500 to 20000 nM |
| COc1ccc2c(C(=O)Nc3ccc4nc(C5CCCN5C)cn4c3)c[nH]c2c1 (racemic) [Example 39, rac-6-methoxy-N-[2-(1-methylpyrrolidin-2-yl)imidazo[1,2-a]pyridin-6-yl]-1H-indole-3-carboxamide] |  |  | > 20000 nM | 1500 to 20000 nM |

| SMILES | IC50 (MLLT3; [3]) | IC50 (MLLT1 [1]) | IC50 (MLLT3; [4]) | IC50 (MLLT1 [2]) |
| --- | --- | --- | --- | --- |
| Cc1nn(C)c2cc(C(=O)Nc3cn4cc([C@H]5CCCN5C)nc4cn3)c(F)cc12 [Example 73, 5-fluoro-1,3-dimethyl-N-{2-[(2R)-1-methylpyrrolidin-2-yl]imidazo[1,2-a]pyrazin-6-yl}-1H-indazole-6-carboxamide] |  |  | 150 to 1500 nM | 150 to 1500 nM |
| CN1CCC[C@@H]1c1cn2cc(NC(=O)c3ccc4c(cnn4C)c3)nc(C3CC3)c2n1 [Example 99, N-[8-cyclopropyl-2-[(2R)-1-methylpyrrolidin-2-yl]imidazo[1,2-a]pyrazin-6-yl]-1-methyl-indazole-5-carboxamide] |  |  | 1500 to 20000 nM | 150 to 1500 nM |
| CN1CCCC1c1cn2cc(NC(=O)c3ccc4cc(F)ccc4c3)ccc2n1 (single isomer, unassigned) [Example 5] |  |  | 150 to 1500 nM | 150 to 1500 nM |
| CN1CCCC1c1cn2cc(NC(=O)c3ccc(-c4cnn(C)c4)cc3F)ccc2n1 (single isomer, unassigned) [Example 21] |  |  | 150 to 1500 nM | 150 to 1500 nM |
| CN1CCCC1c1cn2cc(NC(=O)c3ccc(-c4cnccn4)cc3F)ccc2n1 (single isomer, unassigned) [Example 19] |  |  | 1500 to 20000 nM | 150 to 1500 nM |
| CN1C[C@H](F)C[C@@H]1c1cn2cc(NC(=O)c3ccc4c(cnn4C)c3)ncc2n1 [Example 105, N-(2-((2R,4R)-4-fluoro-1-methylpyrrolidin-2-yl)imidazo[1,2-a]pyrazin-6-yl)-1-methyl-1H-indazole-5-carboxamide] |  |  | 150 to 1500 nM | 150 to 1500 nM |
| Cc1ncsc1-c1ccc(C(=O)Nc2ccc3nc(C4CCCN4C)cn3c2)c(F)c1 (single isomer, unassigned) [Example 22] |  |  | 1500 to 20000 nM | 150 to 1500 nM |
| Cc1noc2nc(C(=O)Nc3ccc4nc(C5CCCN5C)cn4c3)ccc12 (racemic) [Example 50, rac-3-methyl-N-[2-(1-methylpyrrolidin-2-yl)imidazo[1,2-a]pyridin-6-yl]-[1,2]oxazolo[5,4-b]pyridine-6-carboxamide] |  |  | 1500 to 20000 nM | 1500 to 20000 nM |
| CC1CC(c2cn3cc(NC(=O)c4ccc5c(cnn5C)c4)ccc3n2)N(C)C1 (racemic) [Example 64, rac-N-[2-(1,4-dimethylpyrrolidin-2-yl)imidazo[1,2-a]pyridin-6-yl]-1-methyl-1H-indazole-5-carboxamide] |  |  | 150 to 1500 nM | 150 to 1500 nM |
| CN1CCCC1c1cn2cc(NC(=O)c3ccn4cnnc4c3)ccc2n1 (racemic) [Example 33, rac-N-[2-(1-methylpyrrolidin-2-yl)imidazo[1,2-a]pyridin-6-yl]-[1,2,4]triazolo[4,3-alpyridine-7-carboxamide] |  |  | 1500 to 20000 nM | 150 to 1500 nM |
| Cc1nn(C)c2cc(C(=O)Nc3cn4cc([C@H]5CCCN5C)nc4c(C4CC4)n3)c(F)cc12 [Example 100, N-[8-cyclopropyl-2-[(2R)-1-methylpyrrolidin-2-yl]imidazo[1,2-a]pyrazin-6-yl]-5-fluoro-1,3-dimethyl-indazole-6-carboxamide] |  |  | 150 to 1500 nM | 150 to 1500 nM |
| CN1CCC[C@@H]1c1cn2cc(NC(=O)c3ccc4c(C5CC5)nn(C)c4c3)ncc2n1 [Example 71, 3-cyclopropyl-1-methyl-N-{2-[(2R)-1-methylpyrrolidin-2-yl]imidazo[1,2-a]pyrazin-6-yl}-1H-indazole-6-carboxamide] |  |  | 150 to 1500 nM | 150 to 1500 nM |
| CO[C@@H]1C[C@H](c2cn3cc(NC(=O)c4ccc5c(cnn5C)c4)ncc3n2)N(C)C1 (stereo in doubt) [Example 103, N-{2-[(rel-2R,4R)-4-methoxy-1-methylpyrrolidin-2-yl]imidazo[1,2-a]pyrazin-6-yl}-1-methylindazole-5-carboxamide] | 150 to 1500 nM | 0.15 to 1.5 µM |  |  |
| Cc1nc(NC(=O)c2cc3cnn(C)c3cc2Cl)cn2cc([C@H]3CCCN3C)nc12 [Example 92, (R)-6-chloro-1-methyl-N-(8-methyl-2-(1-methylpyrrolidin-2-yl)imidazo[1,2-a]pyrazin-6-yl)-1H-indazole-5-carboxamide] |  |  | 1500 to 20000 nM | 1500 to 20000 nM |
| COc1ccc2nc(C(=O)Nc3ccc4nc(C5CCCN5C)cn4c3)sc2c1 (racemic) [Example 17, rac-6-methoxy-N-[2-(1-methylpyrrolidin-2-yl)imidazo[1,2-a]pyridin-6-yl]-1,3-benzothiazole-2-carboxamide] |  |  | 1500 to 20000 nM | 1500 to 20000 nM |

— US20260216196A1, “IMIDAZO[1,2-A]PYRIDINE AND IMIDAZO[1,2-A]PYRAZINE DERIVATIVES AS MLLT1 AND MLLT3 INHIBITORS” (DARK BLUE THERAPEUTICS LTD., priority 2022, published 2026)
